Patent US20250120980A1, “DIBENZ[…] AND USE IN […] PROTEIN AGONISTS THEREOF” (priority 2023, published 2025)
“And” between values parts separate entries of the source, which are not always exact repeats. Identical values can stand only once.

Columns and labels:
Format in all cases: cell-based
[1] = system: VSV-GFP (vesicular stomatitis virus)
[2] = system: PRV-GFP (porcine pseudorabies virus)
IAV (influenza virus) = system: IAV (influenza virus)
[3] = system: STING pathway (IFNb gene expression) in L929 mouse epithelial-like fibroblasts

## Cc1ccc2c(c1C)Nc1ccccc1CC2=O [Compound 11, 6,7-dimethyl-5,11-dihydro-10H-dibenzo[b,f]aza-10-one]
[1]
  Infection Rate, VSV-GFP: 40% and 31.1% and 33.7%
  proportion of VSV-GF infected cells (in words): significantly reduced
[2]
  Infection Rate, PRV-GFP: 13.1% and 14.2% and 13.5%
  proportion of PRV-GFP infected cells (in words): significantly reduced
IAV (influenza virus)
  M1 (M gene of influenza virus) Ct value: 18.71 and 18.62 and 18.68

## O=C1Cc2ccccc2Nc2ccccc21 [Compound 14, 5,11-dihydro-10H-dibenzo[b,f]aza-10-one]
[1]
  Infection Rate, VSV-GFP: 76.1% and 66.5% and 65.8%
  proportion of VSV-GF infected cells (in words): significantly reduced
[2]
  Infection Rate, PRV-GFP: 17.1% and 19.5% and 19.8%
  proportion of PRV-GFP infected cells (in words): significantly reduced
IAV (influenza virus)
  M1 (M gene of influenza virus) Ct value: 18.99 and 19.52 and 19.69

## COc1ccc2c(c1)CC(=O)c1ccc(C)c(C)c1N2 [Compound 19, 2-methoxy-6,7-dimethyl-5,11-dihydro-10H-dibenzo[b,f]aza-10-one]
[1]
  Infection Rate, VSV-GFP: 99% and 91.1% and 90.5%
  proportion of VSV-GF infected cells (in words): significantly reduced
[2]
  Infection Rate, PRV-GFP: 51% and 55.7% and 50.2%
  proportion of PRV-GFP infected cells (in words): significantly reduced
IAV (influenza virus)
  M1 (M gene of influenza virus) Ct value: 21.37 and 21.39 and 21.49

## O=C1Cc2ccccc2Nc2c(Cl)cccc21 [Compound 15, 6-chloro-5,11-dihydro-10H-dibenzo[b,f]aza-10-one]
[3]
  IFNb mRNA expression 2-^ΔΔCt value: 1.61

## COc1ccc2c(c1)C(=O)Cc1ccccc1N2 [Compound 17, 8-methoxy-5,11-dihydro-10H-dibenzo[b,f]aza-10-one]
[3]
  IFNb mRNA expression 2-^ΔΔCt value: 1.54

## Cc1ccc2c(c1C)Nc1cc(F)ccc1CC2=O [Compound 13, 3-fluoro-6,7-dimethyl-5,11-dihydro-10H-dibenzo[b,f]aza-10-one]
[3]
  IFNb mRNA expression 2-^ΔΔCt value: 2.97 and 2.37 and 2.48 and 3.34
[1]
  Infection Rate, VSV-GFP: 94.3% and 92.7% and 92.1%
  proportion of VSV-GF infected cells (in words): significantly reduced
[2]
  Infection Rate, PRV-GFP: 7.06% and 8.55% and 7.42%
  proportion of PRV-GFP infected cells (in words): significantly reduced
IAV (influenza virus)
  M1 (M gene of influenza virus) Ct value: 19.45 and 20.25 and 19.66

## COc1ccc2c(c1)Nc1c(ccc(C)c1C)C(=O)C2 [Compound 18, 3-methoxy-6,7-dimethyl-5,11-dihydro-10H-dibenzo[b,f]aza-10-one]
[3]
  IFNb mRNA expression 2-^ΔΔCt value: 8.76 and 6.92 and 6.07 and 5.62
[1]
  Infection Rate, VSV-GFP: 13.9% and 12.5% and 12.9%
  proportion of VSV-GF infected cells (in words): significantly reduced
[2]
  Infection Rate, PRV-GFP: 18.3% and 18.1%
  proportion of PRV-GFP infected cells (in words): significantly reduced
IAV (influenza virus)
  M1 (M gene of influenza virus) Ct value: 19.52 and 19.47 and 19.51
